Laboratory results published in ChEMBL document CHEMBL1201862, “PubChem BioAssay data set” (2004).
Activity calls are given as the source filed them.

Experiments:
[1] = molecular target: Fibroblast growth factor receptor 3 (Homo sapiens, UniProt P22607); assay type: functional
[2] = molecular target: Casein kinase I isoform delta (Homo sapiens, UniProt P48730); assay type: functional;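 also: measured as one member (CSNK1D) of a kinome panel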
[3] = molecular target: Casein kinase II subunit alpha (Homo sapiens, UniProt P68400); assay type: functional
[4] = molecular target: Calcium/calmodulin-dependent protein kinase type II subunit beta (Homo sapiens, UniProt Q13554); assay type: functional
Chain of Calcium/calmodulin-dependent protein kinase type II subunit beta (Q13554 whole entry): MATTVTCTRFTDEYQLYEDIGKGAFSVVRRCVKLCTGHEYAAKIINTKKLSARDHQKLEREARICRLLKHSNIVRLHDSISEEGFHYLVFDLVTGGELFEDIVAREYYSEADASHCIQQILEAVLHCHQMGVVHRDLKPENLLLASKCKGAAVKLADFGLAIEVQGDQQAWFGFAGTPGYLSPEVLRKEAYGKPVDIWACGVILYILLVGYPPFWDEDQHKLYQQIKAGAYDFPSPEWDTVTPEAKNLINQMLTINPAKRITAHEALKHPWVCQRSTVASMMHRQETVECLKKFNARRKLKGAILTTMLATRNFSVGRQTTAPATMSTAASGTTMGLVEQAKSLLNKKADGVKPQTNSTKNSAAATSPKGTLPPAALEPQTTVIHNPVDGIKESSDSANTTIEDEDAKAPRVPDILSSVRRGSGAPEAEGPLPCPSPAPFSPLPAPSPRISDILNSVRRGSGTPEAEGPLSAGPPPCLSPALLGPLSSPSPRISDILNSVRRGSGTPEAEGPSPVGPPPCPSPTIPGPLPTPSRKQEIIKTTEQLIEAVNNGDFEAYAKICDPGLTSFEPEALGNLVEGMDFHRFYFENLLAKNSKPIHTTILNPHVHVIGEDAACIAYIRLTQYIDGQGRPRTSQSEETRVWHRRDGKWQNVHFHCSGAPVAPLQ

[5] = molecular target: MAP/microtubule affinity-regulating kinase 3 (Homo sapiens, UniProt P27448); assay type: functional;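 also: MARK3 affinity measured as one member of a kinome panel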
[6] = molecular target: Mitogen-activated protein kinase kinase kinase kinase 5 (Homo sapiens, UniProt Q9Y4K4); assay type: functional;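 also: measured as one member of a kinome-spanning kinase panel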
[7] = molecular target: RAC-alpha serine/threonine-protein kinase (Homo sapiens, UniProt P31749); assay type: functional;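 also: AKT1 affinity measured as one member of a kinome-wide kinase profiling panel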
Chain of RAC-alpha serine/threonine-protein kinase (P31749 whole entry): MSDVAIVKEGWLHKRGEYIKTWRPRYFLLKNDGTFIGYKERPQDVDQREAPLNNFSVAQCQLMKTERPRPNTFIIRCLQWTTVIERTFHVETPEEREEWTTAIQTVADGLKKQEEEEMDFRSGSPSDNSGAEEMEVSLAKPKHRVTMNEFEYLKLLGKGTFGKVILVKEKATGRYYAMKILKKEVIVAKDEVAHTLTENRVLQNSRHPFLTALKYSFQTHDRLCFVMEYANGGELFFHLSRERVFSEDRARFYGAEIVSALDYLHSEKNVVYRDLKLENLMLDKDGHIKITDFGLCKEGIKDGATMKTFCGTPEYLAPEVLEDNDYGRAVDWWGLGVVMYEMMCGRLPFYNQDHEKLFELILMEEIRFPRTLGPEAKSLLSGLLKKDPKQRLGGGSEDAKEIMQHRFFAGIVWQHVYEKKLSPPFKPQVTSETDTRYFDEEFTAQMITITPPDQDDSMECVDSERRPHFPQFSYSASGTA

[8] = molecular target: Serine/threonine-protein kinase N2 (Homo sapiens, UniProt Q16513); assay type: functional
[9] = molecular target: Serine/threonine-protein kinase MRCK alpha (Homo sapiens, UniProt Q5VT25); assay type: functional
Chain of Serine/threonine-protein kinase MRCK alpha (Q5VT25 whole entry, canonical isoform): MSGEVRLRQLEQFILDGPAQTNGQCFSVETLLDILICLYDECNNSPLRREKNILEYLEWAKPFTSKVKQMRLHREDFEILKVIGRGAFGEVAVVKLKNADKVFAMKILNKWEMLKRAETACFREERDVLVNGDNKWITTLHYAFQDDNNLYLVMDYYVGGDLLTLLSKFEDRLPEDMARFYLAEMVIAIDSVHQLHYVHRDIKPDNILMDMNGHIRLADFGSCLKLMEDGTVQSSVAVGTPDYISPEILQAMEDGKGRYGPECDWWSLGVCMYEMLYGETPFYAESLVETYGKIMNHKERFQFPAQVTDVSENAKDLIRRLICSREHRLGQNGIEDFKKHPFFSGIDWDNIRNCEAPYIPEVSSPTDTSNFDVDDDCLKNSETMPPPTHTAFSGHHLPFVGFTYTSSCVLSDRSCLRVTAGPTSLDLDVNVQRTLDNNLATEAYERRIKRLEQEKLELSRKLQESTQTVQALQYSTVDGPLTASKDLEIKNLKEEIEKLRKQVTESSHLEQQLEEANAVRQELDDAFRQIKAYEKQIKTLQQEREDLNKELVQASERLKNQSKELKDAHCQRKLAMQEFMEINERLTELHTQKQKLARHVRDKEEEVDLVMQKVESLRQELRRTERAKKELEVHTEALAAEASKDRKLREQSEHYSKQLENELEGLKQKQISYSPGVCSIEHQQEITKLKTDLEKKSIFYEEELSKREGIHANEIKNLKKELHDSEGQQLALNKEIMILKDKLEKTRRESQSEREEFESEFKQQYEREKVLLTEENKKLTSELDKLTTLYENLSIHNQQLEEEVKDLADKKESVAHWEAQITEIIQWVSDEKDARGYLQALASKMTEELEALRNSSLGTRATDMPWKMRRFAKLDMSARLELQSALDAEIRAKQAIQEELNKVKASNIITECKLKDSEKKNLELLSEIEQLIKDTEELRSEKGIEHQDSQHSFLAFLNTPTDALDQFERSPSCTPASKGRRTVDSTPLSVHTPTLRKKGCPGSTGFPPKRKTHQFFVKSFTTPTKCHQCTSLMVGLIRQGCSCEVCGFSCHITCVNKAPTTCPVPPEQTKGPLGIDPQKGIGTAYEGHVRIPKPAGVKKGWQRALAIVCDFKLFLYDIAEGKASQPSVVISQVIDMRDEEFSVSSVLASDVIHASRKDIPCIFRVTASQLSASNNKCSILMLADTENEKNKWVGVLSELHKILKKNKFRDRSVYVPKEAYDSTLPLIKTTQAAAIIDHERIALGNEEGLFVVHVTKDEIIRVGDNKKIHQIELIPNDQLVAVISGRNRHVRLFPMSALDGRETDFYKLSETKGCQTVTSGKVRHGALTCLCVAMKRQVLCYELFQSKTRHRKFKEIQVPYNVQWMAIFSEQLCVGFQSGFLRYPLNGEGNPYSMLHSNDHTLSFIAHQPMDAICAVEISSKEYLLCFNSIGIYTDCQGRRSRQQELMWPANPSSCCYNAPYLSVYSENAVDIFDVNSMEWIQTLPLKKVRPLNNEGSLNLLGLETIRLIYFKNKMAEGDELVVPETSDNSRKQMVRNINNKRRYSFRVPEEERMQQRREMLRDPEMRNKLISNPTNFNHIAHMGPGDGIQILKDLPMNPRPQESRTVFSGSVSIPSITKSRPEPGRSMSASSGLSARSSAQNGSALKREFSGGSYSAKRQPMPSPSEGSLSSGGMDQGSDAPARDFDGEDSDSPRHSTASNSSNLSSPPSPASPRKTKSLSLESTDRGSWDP

[10] = molecular target: Casein kinase I isoform alpha (Homo sapiens, UniProt P48729); assay type: functional
Chain of Casein kinase I isoform alpha (P48729 whole entry, canonical isoform): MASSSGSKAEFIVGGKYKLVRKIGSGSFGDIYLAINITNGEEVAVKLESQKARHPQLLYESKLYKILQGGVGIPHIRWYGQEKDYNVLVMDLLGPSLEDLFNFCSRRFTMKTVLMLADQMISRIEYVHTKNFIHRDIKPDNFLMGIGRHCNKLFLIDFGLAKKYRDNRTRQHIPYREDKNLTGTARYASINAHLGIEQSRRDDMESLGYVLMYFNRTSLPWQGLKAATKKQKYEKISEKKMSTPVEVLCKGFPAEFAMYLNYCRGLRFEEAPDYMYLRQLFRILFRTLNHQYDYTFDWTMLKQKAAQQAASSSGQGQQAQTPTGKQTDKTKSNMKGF

[11] = molecular target: MAP kinase-interacting serine/threonine-protein kinase 2 (Homo sapiens, UniProt Q9HBH9); assay type: functional
Chain of MAP kinase-interacting serine/threonine-protein kinase 2 (Q9HBH9 whole entry): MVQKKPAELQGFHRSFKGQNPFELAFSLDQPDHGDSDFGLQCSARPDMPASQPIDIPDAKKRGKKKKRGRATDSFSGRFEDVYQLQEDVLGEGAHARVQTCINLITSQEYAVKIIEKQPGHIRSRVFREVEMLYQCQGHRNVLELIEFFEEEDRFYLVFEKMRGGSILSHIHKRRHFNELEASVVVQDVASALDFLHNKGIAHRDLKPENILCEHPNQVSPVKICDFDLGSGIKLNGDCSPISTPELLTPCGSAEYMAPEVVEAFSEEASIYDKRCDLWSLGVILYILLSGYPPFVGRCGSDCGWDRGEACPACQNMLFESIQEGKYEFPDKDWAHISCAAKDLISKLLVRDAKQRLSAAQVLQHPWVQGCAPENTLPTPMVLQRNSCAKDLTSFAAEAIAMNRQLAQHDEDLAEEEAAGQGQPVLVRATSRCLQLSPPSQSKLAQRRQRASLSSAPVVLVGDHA

Misshapen-like kinase 1 = Misshapen-like kinase 1 (Homo sapiens, UniProt Q8N4C8); assay type: functional;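 also: kinome panel screen with MINK as the panel member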
Ephrin type-A receptor 2 = Ephrin type-A receptor 2 (Homo sapiens, UniProt P29317); assay type: functional;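 also: EPHA2 tested as one member of a kinome-wide kinase panel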
[12] = molecular target: STE20-like serine/threonine-protein kinase (Homo sapiens, UniProt Q9H2G2); assay type: functional
[13] = molecular target: Protein kinase C iota type (Homo sapiens, UniProt P41743); assay type: functional;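 also: measured within a kinome-wide kinase panel, PRKCI as panel member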
[14] = molecular target: Calcium/calmodulin-dependent protein kinase type 1 (Homo sapiens, UniProt Q14012); assay type: functional
Chain of Calcium/calmodulin-dependent protein kinase type 1 (Q14012 whole entry): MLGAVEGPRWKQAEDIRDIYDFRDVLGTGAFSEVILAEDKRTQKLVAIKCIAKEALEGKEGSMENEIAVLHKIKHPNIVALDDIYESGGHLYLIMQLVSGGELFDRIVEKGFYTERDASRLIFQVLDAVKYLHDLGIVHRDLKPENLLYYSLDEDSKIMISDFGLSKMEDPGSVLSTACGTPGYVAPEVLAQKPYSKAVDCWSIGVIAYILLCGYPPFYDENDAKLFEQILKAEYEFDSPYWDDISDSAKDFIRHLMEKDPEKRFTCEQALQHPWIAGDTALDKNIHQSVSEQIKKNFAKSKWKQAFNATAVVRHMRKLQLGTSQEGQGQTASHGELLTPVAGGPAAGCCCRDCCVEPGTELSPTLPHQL

[15] = molecular target: Serine/threonine-protein kinase 17A (Homo sapiens, UniProt Q9UEE5); assay type: functional
[16] = molecular target: Cyclin-dependent kinase 9 (Homo sapiens, UniProt P50750); assay type: functional;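 also: value from the CDK9 entry of a kinome-spanning kinase panel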
Chain of Cyclin-dependent kinase 9 (P50750 whole entry): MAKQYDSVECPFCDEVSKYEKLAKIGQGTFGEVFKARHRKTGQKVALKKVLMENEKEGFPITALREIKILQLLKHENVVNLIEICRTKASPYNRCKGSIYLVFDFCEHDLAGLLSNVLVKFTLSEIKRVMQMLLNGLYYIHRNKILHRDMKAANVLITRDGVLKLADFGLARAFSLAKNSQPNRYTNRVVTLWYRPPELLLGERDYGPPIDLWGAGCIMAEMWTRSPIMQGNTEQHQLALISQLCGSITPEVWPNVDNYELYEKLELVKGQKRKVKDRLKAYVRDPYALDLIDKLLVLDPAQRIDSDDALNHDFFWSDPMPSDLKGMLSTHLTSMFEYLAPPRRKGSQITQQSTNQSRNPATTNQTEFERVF

[17] = molecular target: Glycogen synthase kinase-3 beta (Homo sapiens, UniProt P49841); assay type: functional;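 also: value comes from a broad kinome profiling panel, with GSK3B as the panel member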
Chain of Glycogen synthase kinase-3 beta (P49841 whole entry): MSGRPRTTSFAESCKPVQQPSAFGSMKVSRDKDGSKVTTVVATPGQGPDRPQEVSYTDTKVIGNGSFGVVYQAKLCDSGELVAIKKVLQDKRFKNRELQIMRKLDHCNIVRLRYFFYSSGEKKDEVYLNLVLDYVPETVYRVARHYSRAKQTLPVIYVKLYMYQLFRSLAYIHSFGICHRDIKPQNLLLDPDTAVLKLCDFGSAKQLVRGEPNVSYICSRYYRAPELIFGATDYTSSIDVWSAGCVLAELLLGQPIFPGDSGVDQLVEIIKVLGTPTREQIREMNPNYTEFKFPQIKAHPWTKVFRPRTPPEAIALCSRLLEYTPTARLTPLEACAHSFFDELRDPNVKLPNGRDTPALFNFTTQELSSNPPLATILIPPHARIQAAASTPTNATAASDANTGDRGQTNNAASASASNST

[18] = molecular target: T1, Long-chain-fatty-acid--AMP ligase FadD28 (Mycobacterium tuberculosis, UniProt P9WQ59); assay: Fluorescence polarization aasay to screen for inhibitors that compete for the binding of FadD28 to a bisubstrate Measured in Biochemical System Using Plate Reader - 2147-01_Inhibitor_Dose_CherryPick_Activity.; assay type: functional, Mycobacterium tuberculosis H37Rv
T1 sequence (P9WQ59 whole entry): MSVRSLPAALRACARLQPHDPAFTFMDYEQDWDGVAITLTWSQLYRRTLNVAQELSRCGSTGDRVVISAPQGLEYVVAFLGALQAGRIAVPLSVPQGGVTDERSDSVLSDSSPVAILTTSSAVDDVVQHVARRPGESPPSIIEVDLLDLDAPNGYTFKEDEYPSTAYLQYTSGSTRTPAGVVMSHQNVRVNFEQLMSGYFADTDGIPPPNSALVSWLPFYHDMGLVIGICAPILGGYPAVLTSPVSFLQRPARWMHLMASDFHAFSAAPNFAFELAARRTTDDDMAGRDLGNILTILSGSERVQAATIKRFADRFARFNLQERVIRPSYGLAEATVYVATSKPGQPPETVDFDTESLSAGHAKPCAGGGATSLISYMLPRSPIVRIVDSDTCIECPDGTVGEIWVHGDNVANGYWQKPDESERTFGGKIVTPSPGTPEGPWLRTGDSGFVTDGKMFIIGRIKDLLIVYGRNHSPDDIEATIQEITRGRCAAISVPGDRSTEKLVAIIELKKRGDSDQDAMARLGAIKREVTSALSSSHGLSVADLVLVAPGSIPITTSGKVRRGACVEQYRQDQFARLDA

[19] = molecular target: T2, Sentrin-specific protease 7 (Homo sapiens, UniProt Q9BQF6); assay type: functional;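 also: Luminescence-based dose-response confirmation of ultra-high-throughput screening hits, measuring inhibition of SENP7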
T2 sequence (Q9BQF6 whole entry): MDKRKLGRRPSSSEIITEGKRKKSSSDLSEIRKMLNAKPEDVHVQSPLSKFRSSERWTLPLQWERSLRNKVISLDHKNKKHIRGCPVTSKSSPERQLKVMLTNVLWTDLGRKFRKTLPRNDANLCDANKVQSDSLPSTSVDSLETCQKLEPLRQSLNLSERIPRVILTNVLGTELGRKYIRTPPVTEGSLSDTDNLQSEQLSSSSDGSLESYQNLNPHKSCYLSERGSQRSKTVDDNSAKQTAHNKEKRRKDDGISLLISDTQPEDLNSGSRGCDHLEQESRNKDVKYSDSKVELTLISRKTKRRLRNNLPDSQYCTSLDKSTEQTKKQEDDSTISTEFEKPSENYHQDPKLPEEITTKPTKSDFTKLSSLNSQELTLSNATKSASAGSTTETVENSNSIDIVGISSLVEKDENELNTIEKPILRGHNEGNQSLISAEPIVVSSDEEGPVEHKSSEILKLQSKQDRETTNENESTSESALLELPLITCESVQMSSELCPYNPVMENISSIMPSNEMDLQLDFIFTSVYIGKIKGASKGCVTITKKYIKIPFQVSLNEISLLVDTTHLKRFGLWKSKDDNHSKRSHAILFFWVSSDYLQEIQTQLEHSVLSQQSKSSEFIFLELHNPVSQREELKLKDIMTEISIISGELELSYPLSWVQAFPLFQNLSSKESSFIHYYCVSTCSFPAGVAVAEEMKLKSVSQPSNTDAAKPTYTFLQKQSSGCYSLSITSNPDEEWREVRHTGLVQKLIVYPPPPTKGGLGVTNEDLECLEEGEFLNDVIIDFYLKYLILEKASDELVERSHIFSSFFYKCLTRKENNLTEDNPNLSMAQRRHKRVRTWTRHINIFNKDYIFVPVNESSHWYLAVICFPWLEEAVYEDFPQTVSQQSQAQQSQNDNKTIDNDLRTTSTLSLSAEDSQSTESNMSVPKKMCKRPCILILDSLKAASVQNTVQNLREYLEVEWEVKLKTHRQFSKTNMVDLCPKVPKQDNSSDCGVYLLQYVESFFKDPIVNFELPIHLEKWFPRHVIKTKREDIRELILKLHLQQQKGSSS

[20] = molecular target: Tyrosyl-DNA phosphodiesterase 2 (Homo sapiens, UniProt O95551); assay: human TDP2 enzyme inhibitors, dose response, biochemical, epi absorbance, IC50 (AID 743297)

With `CN1CCC(c2c(O)cc(O)c3c(=O)cc(-c4ccccc4Cl)oc23)C(O)C1` (stereo not drawn) the Ki [1] was > 2 µM (inactive), the Ki [2] was > 7.94 µM (inactive) and the Ki [3] was > 6.31 µM (inactive). For the same compound, the Ki [4] was 5.01 µM (active), the pKi [4] was 5.3 and the Ki [5] was > 6.31 µM (inactive). The Ki [6] was 1 µM (active), the Ki [7] was > 7.94 µM (inactive) and the Ki [8] was 5.01 µM (active). For the same compound, the Ki [9] was 0.631 µM (active), the pKi [9] was 6.2 and the Ki [10] was > 5.01 µM (inactive). The Ki [11] was 5.01 µM (active), the Ki (Misshapen-like kinase 1) was > 7.94 µM (inactive) and the Ki (Ephrin type-A receptor 2) was 2 µM (active). The Ki [12] was > 10 µM (inactive), the Ki [13] was > 5.01 µM (inactive) and the Ki [14] was > 3.16 µM (inactive). The Ki [15] was > 3.98 µM (inactive).

For `Cc1ccc(C)c(NC(=O)c2cc(-c3ccco3)nc3ccccc23)c1`, the Ki [16] was 0.398 µM (active) and the Ki [17] was 1.58 µM (active).

For `CC(/C=C1\SC(=S)N(NS(=O)(=O)c2ccc(C)cc2)C1=O)=C\c1ccccc1`, the AC50 [18] was > 100 µM (inactive) and the IC50 [19] was 43.9 µM (active).

`Cc1ccc(NC2=C(NCCO)C(=O)c3ccccc3C2=O)cc1` was tested, and the IC50 [20] was 65.1 µM (inactive) and the IC50 [19] was 11.6 µM (active).

For `COc1ccc(C2=NNc3cccc4c(OC)ccc2c34)cc1OC`, the Ki [10] was 0.0126 µM (active), the Ki [16] was 0.2 µM (active) and the Ki [17] was > 3.98 µM (inactive).
